A short description of this data set: RP, Waters ACQUITY UPLC BEH C8, 100 × 2.1 mm, 1.7 µm, 50 °C, 0.35 mL/min, estimated dead time 0.63 min; A: water + 0.1% formic acid; B: acetonitrile + 0.1% formic acid; gradient (min/%B) 0/5 1/5 24/100 28/100. Conditions: stereoisomer not certain.
`CCC=CCC=CCC=CCC=CCC=CCC=CCCC(=O)O`: the LC retention time was 17.8 min.

As to `CCCCCCCCCCCCCCC(=O)OC(CC(=O)O)C[N+](C)(C)C` (stereo not drawn), the LC retention time was 13.8 min. To `O=Cc1ccc(O)cc1` belongs 1.03 min; to `CCn1cc(C(=O)O)c(=O)c2ccc(C)nc21`, 7.7 min; to `C1CCNC1`, 1.03 min. To `CCCCOC(=O)c1ccccc1C(=O)OCCCC` belongs 15.7 min. To `CC(CCC(=O)NCC(=O)O)C1CCC2C3C(O)C(O)C4CC(O)CCC4(C)C3CCC12C` (stereo not drawn) belongs 9.97 min; to `CC(=O)Nc1ccc(O)cc1`, 1.98 min; to `O=CCC(O)C(O)C(O)CO` (stereo not drawn), 0.783 min. In the case of `CCCCCC=CC=CCCCCCCCCC(=O)OC(CC(=O)O)C[N+](C)(C)C` (stereo not drawn), the LC retention time is 14.4 min. To `O=C(O)CCc1c[nH]c2ccccc12` belongs 7.33 min; to `NC(Cc1c[nH]c2ccccc12)C(=O)O` (stereo not drawn), 2.47 min; to `CCCCCCC(N)C(=O)O` (stereo not drawn), 0.8 min. For the compound `CSCCC(N)C(=O)O` (stereo not drawn), the LC retention time is 1.02 min. To `CCCCCCCCC=CCCCCCCCC(=O)NCCO` belongs 16.9 min. To `CCCCCCC=CCCCCCCCC(=O)O` belongs 17.4 min; to `CC(C)CCCCCOC(=O)c1ccccc1C(=O)OCCCCCC(C)C`, 20.8 min; to `CCCCCCCCCCCCCCCC(O)C(N)CO` (stereo not drawn), 12.6 min. In the case of `CCC=CCC=CCCC(=O)OC(CC(=O)O)C[N+](C)(C)C` (stereo not drawn) it was 8.58 min; in that of `CCCCCCCCCCCCCC(=O)OC(CC(=O)O)C[N+](C)(C)C` (stereo not drawn), 13.3 min; in that of `NC(Cc1ccccc1)C(=O)O` (stereo not drawn), 1.63 min. As for `NN1CCOC1=O`, the LC retention time is 1.6 min. Consider `CCCCCCCCC=CCCCCCC(=O)OC(CC(=O)O)C[N+](C)(C)C` (stereo not drawn), for which the LC retention time was 13.9 min. In the case of `CC(=O)CCC=C(C)CCC=C(C)CCC=C(C)C` it was 17.9 min; in that of `O=C(O)C1CCCCN1` (stereo not drawn), 0.817 min. For `CCCCCCCCCCCCCCCC(=O)OCC(O)COP(=O)([O-])OCC[N+](C)(C)C` (stereo not drawn), the LC retention time was 14.3 min.

In the case of `CC(CCC(=O)NCC(=O)O)C1CCC2C3CCC4CC(O)CCC4(C)C3CC(O)C12C` (stereo not drawn), the LC retention time is 11.8 min.

On to `CCCCCCC=CCCCCCCCCCC(=O)O`, for which the LC retention time was 18.9 min.

In the case of `C[N+](C)(C)CC(O)CC(=O)[O-]` (stereo not drawn), the LC retention time was 0.767 min. To `Cn1cccc1-c1cccnc1` belongs 2.47 min; to `O=C(O)C1CCCN1` (stereo not drawn), 0.9 min; to `CC(C)CCCC(C)C1CCC2C3C(=O)C=C4CC(O)CCC4(C)C3CCC12C` (stereo not drawn), 19.4 min. Turning to `CCCCCCCCOC(=O)c1ccccc1C(=O)OCCCCCCCC`, the LC retention time is 21.4 min.

Take `CCCCCC=CCC=CCC=CCCCCCCC(=O)OCC(O)COP(=O)([O-])OCC[N+](C)(C)C` (stereo not drawn): the LC retention time was 15.9 min. Take `CCCCCC=CCC=CCC=CCC=CCCCC(=O)O`: the LC retention time was 17.9 min. In the case of `CCCCCCCCCCCCCCCCCC(N)=O` it was 18.4 min; in that of `CC(C)C1=CC2=CCC3C(C)(C(=O)O)CCCC3(C)C2CC1` (stereo not drawn), 17.1 min; in that of `Cc1cc2nc3c(=O)[nH]c(=O)nc-3n(CC(O)C(O)C(O)CO)c2cc1C` (stereo not drawn), 3.85 min.

`NC(Cc1ccccc1)C(=O)NC(Cc1ccccc1)C(=O)O` (stereo not drawn): the LC retention time is 5.35 min. As to `NCCc1c[nH]c2ccc(O)cc12`, the LC retention time is 1.02 min. With `CCCCCCCCCCCCCCCC(=O)O`, the LC retention time was 18.4 min. In the case of `CCCC=CCCC(=O)OC(CC(=O)O)C[N+](C)(C)C` (stereo not drawn) it was 6.8 min. For the compound `CCCCC=CCCCCCCC(=O)OC(CC(=O)O)C[N+](C)(C)C` (stereo not drawn), the LC retention time is 11.8 min. In the case of `CCCC(=O)OC(CC(=O)O)C[N+](C)(C)C` (stereo not drawn) it was 2.28 min; in that of `Nc1nc2ccc(C(=O)c3ccccc3)cc2[nH]1`, 5.28 min.

`CCCCCCCCCCCCCCCC(N)=O`: the LC retention time is 16.9 min. As to `CCCCCCCCC=CCCCCCCCCCC(=O)O`, the LC retention time is 20.1 min. To `CCCCCCCCCCCCCCC=CCCCCCCCCCC(=O)OC(CC(=O)O)C[N+](C)(C)C` (stereo not drawn) belongs 19.1 min. In the case of `CCCCCCC=CCCCC(=O)OC(CC(=O)O)C[N+](C)(C)C` (stereo not drawn) it was 11.4 min; in that of `O=c1[nH]cnc2nc[nH]c12`, 1.02 min; in that of `CCCCC(=O)OC(CC(=O)O)C[N+](C)(C)C` (stereo not drawn), 3.7 min. To `Oc1ccc2[nH]ccc2c1` belongs 3.23 min; to `CC(CCC(=O)O)C1CCC2C3CCC4CC(O)CCC4(C)C3CC(O)C12C` (stereo not drawn), 13.3 min. `CCCCC=CC=CCCCCCC(=O)OC(CC(=O)O)C[N+](C)(C)C` (stereo not drawn): the LC retention time is 11.9 min. In the case of `CCC=CCC=CCC=CCC=CCC=CCCCC(=O)O` it was 18.1 min.

Turning to `NC(=O)CCC(NC(=O)Cc1ccccc1)C(=O)O` (stereo not drawn), the LC retention time is 3.67 min. In the case of `CCCCCCCCCCCCCCCCCCC(=O)OCC(O)COP(=O)([O-])OCC[N+](C)(C)C` (stereo not drawn) it was 16.8 min; in that of `Cc1cnc2ccccc2c1`, 2.47 min; in that of `CCCCCC=CCCC(=O)OC(CC(=O)O)C[N+](C)(C)C` (stereo not drawn), 9.35 min. As to `CCCCCCCCC=CCCCCCCCC(N)=O`, the LC retention time was 17.4 min. To `CC(C)NCC(O)COc1ccc(CC(N)=O)cc1` (stereo not drawn) belongs 2.03 min; to `CCCCCCCCC=CCCCCCCCCCC(=O)OC(CC(=O)O)C[N+](C)(C)C` (stereo not drawn), 16.3 min. To `CCCCCCCCCCCCCCCCCCCCCC(=O)OC(CC(=O)O)C[N+](C)(C)C` (stereo not drawn) belongs 18.1 min.

Regarding `CCC=CCC=CCC=CCCCCCCCC(=O)O`, the LC retention time was 17.1 min. In the case of `NC(Cc1ccc(O)cc1)C(=O)O` (stereo not drawn) it was 1.03 min; in that of `O=C(CO)CO`, 1.6 min; in that of `CCCCC=CCCCCCCCC(=O)OC(CC(=O)O)C[N+](C)(C)C` (stereo not drawn), 12.7 min. In the case of `CC(C)(CO)C(O)C(=O)NCCC(=O)O` (stereo not drawn) it was 1.92 min. In the case of `O=C(O)c1ccccc1O`, the LC retention time was 4.47 min. To `CCCCCC=CCC=CCC=CCCCCCCC(=O)O` belongs 18.4 min. Regarding `CCCCCCCCC(=O)OC(CC(=O)O)C[N+](C)(C)C` (stereo not drawn), the LC retention time is 8.62 min. Turning to `CCCCCCCCCCCCCC=CC(O)C(N)COP(=O)(O)O` (stereo not drawn), the LC retention time is 13 min. To `CC(C)CC(NC(=O)C1CCCN1)C(=O)O` (stereo not drawn) belongs 1.12 min; to `O=C(O)C=Cc1ccccc1`, 1.6 min; to `CC12CCC(=O)C=C1CCC1C2C(O)CC2(C)C1CCC2(O)C(=O)CO` (stereo not drawn), 7.77 min.

`CCCCCCCCCCCCCCCCCCOCC(O)COP(=O)([O-])OCC[N+](C)(C)C` (stereo not drawn): the LC retention time is 15.3 min. In the case of `CCCCCCCCCCCCCCCC(=O)NCCO` it was 16.3 min; in that of `CCCCCCCCCCCCCCCCCCCCCCCCCC(=O)OC(CC(=O)O)C[N+](C)(C)C` (stereo not drawn), 19.8 min; in that of `CCCCCCCCC=CCC=CCCC(=O)OC(CC(=O)O)C[N+](C)(C)C` (stereo not drawn), 13.2 min.

For the compound `CC(C)CCCC(C)C1CCC2C3CCC4=CC(=O)CCC4(C)C3CCC12C` (stereo not drawn), the LC retention time was 21.8 min. To `CCCCCCC=CCCCCCCCCCCOCC(O)COP(=O)([O-])OCC[N+](C)(C)C` (stereo not drawn) belongs 14.4 min; to `Nc1ccccc1C(=O)CC(N)C(=O)O` (stereo not drawn), 1.53 min; to `O=C(O)C(O)Cc1c[nH]c2ccccc12` (stereo not drawn), 5.17 min. To `CCCCC=CCCC(=O)OC(CC(=O)O)C[N+](C)(C)C` (stereo not drawn) belongs 7.65 min. To `CCCCCC=CCC=CCCCCCCCC(=O)OCC(O)CO` (stereo not drawn) belongs 17 min. As for `CCCCCCCCCCCCCCCCCCCC(=O)OC(CC(=O)O)C[N+](C)(C)C` (stereo not drawn), the LC retention time is 17.1 min. In the case of `CCCCCCC=CCCCCCCCCCC(=O)OC(CC(=O)O)C[N+](C)(C)C` (stereo not drawn) it was 15.2 min.

As for `CCCCCCCCC=CCCCCCCCCCCCC(N)=O`, the LC retention time is 18.8 min. On to `NC(Cc1ccccc1)C(=O)N1CCCC1C(=O)O` (stereo not drawn), for which the LC retention time was 4.18 min. For the compound `O=C(O)C(O)c1ccc(O)c(O)c1` (stereo not drawn), the LC retention time was 13.9 min. With `CCCCCC=CCC=CCC=CCCCCCCC(=O)OCC(COP(=O)([O-])OCC[N+](C)(C)C)OC(=O)CCCCCCCCCCCCC` (stereo not drawn), the LC retention time is 20.2 min.

Consider `Cn1c(=O)[nH]c2ncn(C)c2c1=O`, for which the LC retention time was 2.28 min.

Take `C=CC1=C(C)C(C=c2[nH]c(=Cc3[nH]c(C=C4NC(=O)C(C)=C4C=C)c(C)c3CCC(=O)O)c(CCC(=O)O)c2C)=NC1=O`: the LC retention time was 10.7 min. To `CCC=CCC=CCC=CCC=CCC=CCCCC(=O)OCC(COP(=O)([O-])OCC[N+](C)(C)C)OC(=O)CCCC=CCC=CCC=CCCCCCCCC` (stereo not drawn) belongs 22 min.

In the case of `CC(=O)Nc1ccc(OC2OC(C(=O)O)C(O)C(O)C2O)cc1` (stereo not drawn), the LC retention time was 1.22 min. Regarding `Cn1cnc2c(ncn2C2OC(CO)C(O)C2O)c1=N` (stereo not drawn), the LC retention time is 1 min.

Regarding `CC(C)CC(NC(=O)CCC([NH3+])C(=O)[O-])C(=O)[O-]` (stereo not drawn), the LC retention time was 3.05 min. To `CCCCCCCCCCCCCCCCCCCCCCCC(=O)OC(CC(=O)O)C[N+](C)(C)C` (stereo not drawn) belongs 19 min.
